Source: patent publication US20200361871A1 (Enterprise Therapeutics Ltd., priority 2018, published 2020)
Values belong to the compound of their own block, whether it stands above or below them.

Target: human TMEM16A (TMEM16Aabc variant) (Homo sapiens, UniProt Q5XXA6, DEL476-501, form not given)
Assay: Automated whole-cell patch clamp (Qpatch) TMEM16A potentiator assay in FRT cells stably expressing human TMEM16A
Assay type: cell-based
Conditions: for % Potentiation @ 3.33 μM Avg: 3.33 μM solution of test compound, percentage increase of baseline TMEM16A current; for EC50: calculated EC50, Qpatch TMEM16A current at +70 mV
How it was run: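 FRT cells stably expressing human TMEM16Aabc were recorded by automated whole-cell patch clamp, with intracellular Ca2+ buffered for ~EC20 activation, holding −70 mV and step to +70 mV at 0.05 Hz. Compound was applied cumulatively, 5 min per concentration. Peak current increase as % of baseline was fitted to give EC50 and maximum efficacy.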

human TMEM16A (TMEM16Aabc variant), sequence (Q5XXA6 with tags, fused parts or gaps DEL476-501): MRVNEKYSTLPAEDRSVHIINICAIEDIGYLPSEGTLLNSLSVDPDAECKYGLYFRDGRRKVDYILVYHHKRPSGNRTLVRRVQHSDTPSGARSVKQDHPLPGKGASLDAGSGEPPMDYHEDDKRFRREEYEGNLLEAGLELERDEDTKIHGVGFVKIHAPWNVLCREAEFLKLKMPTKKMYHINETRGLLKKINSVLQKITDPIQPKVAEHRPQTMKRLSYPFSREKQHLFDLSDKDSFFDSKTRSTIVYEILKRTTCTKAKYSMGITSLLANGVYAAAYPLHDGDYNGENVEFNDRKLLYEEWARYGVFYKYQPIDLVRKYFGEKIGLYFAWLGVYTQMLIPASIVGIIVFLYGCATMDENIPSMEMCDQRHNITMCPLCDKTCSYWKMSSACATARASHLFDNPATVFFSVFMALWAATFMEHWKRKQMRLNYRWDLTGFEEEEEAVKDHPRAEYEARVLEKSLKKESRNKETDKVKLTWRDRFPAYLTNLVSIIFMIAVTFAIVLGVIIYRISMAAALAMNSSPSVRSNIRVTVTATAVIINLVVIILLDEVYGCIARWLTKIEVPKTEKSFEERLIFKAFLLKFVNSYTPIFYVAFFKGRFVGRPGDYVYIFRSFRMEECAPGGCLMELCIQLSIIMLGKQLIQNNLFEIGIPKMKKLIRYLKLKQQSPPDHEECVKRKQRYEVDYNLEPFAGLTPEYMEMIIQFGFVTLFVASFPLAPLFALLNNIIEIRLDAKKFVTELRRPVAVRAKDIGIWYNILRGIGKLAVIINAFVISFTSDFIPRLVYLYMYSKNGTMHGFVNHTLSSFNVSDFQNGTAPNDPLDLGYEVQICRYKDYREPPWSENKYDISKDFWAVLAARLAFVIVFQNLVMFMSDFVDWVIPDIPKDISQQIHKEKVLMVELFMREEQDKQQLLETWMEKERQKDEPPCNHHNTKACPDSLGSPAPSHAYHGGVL

% Potentiation @ 3.33 μM Avg: 115%
SMILES: CC(C)(C)NC(=O)c1cc(NC(=O)Cc2ccccc2OC(F)F)ccn1 [Example 23.4, N-tert-Butyl-4-[[2-[2-(difluoromethoxy)phenyl]acetyl]amino]pyridine-2-carboxamide]

% Potentiation @ 3.33 μM Avg: 78%
SMILES: CC(C)(C)NC(=O)c1cc(NC(=O)NCC2CCCCC2)ccn1 [Example 64.1, N-tert-Butyl-4-(cyclohexylmethylcarbamoylamino)pyridine-2-carboxamide]

SMILES: C#CC(C)(C)NC(=O)c1cccc(NC(=O)Cc2cc(F)ccc2O)c1 [Example 35.21, N-(1,1-Dimethylprop-2-ynyl)-3-[[2-(5-fluoro-2-hydroxy-phenyl)acetyl]amino]benzamide]
% Potentiation @ 3.33 μM Avg: 200% | EC50: 410 nM

SMILES: C#CC(C)(C)NC(=O)c1cc(NC(=O)Cc2cc(F)ccc2F)ccn1 [Example 77, 4-[[2-(2,5-Difluorophenyl)acetyl]amino]-N-(1,1-dimethylprop-2-ynyl)pyridine-2-carboxamide]
% Potentiation @ 3.33 μM Avg: 139% | EC50: 410 nM

SMILES: O=C(Cc1cc(Cl)ccc1O)Nc1ccnc(C(=O)NCc2ccccn2)c1 [Example 32.3, 4-[[2-(5-Chloro-2-hydroxy-phenyl)acetyl]amino]-N-(2-pyridylmethyl)pyridine-2-carboxamide]
% Potentiation @ 3.33 μM Avg: 288% | EC50: 290 nM

SMILES: C#CC(C)(C)NC(=O)c1cc(NC(=O)Cc2cc(F)ccc2O)ccn1 [Example 81.3, N-(1,1-Dimethylprop-2-ynyl)-4-[[2-(5-fluoro-2-hydroxy-phenyl)acetyl]amino] pyridine-2-carboxamide]
% Potentiation @ 3.33 μM Avg: 129% | EC50: 40 nM

% Potentiation @ 3.33 μM Avg: 93%
SMILES: CC(C)(C#N)NC(=O)c1cc(NC(=O)c2cccc3ncsc23)ccn1 [Example 83.30, N-[2-[(1-Cyano-1-methyl-ethyl)carbamoyl]-4-pyridyl]-1,3-benzothiazole-7-carboxamide]

SMILES: N#CC1(NC(=O)c2cc(NC(=O)Cc3ccccc3Cl)ccn2)CCOCC1 [Example 23.15, 4-[[2-(2-Chlorophenyl)acetyl]amino]-N-(4-cyanotetrahydropyran-4-yl)pyridine-2-carboxamide]
% Potentiation @ 3.33 μM Avg: 147% | EC50: 1190 nM

SMILES: O=C(Cc1ccccc1Cl)Nc1ccnc(C(=O)NC23CC(F)(C2)C3)c1 [Example 30.9, 4-[[2-(2-Chlorophenyl)acetyl]amino]-N-(3-fluoro-1-bicyclo[1.1.1]pentanyl)pyridine-2-carboxamide]
% Potentiation @ 3.33 μM Avg: 100% | EC50: 470 nM

SMILES: CC(C)(C)c1ccc(O)c(CC(=O)Nc2ccnc(C(=O)NC3(C#N)CCOCC3)c2)c1 [Example 25.1, 4-[[2-(5-tert-Butyl-2-hydroxy-phenyl)acetyl]amino]-N-(4-cyanotetrahydropyran-4-yl)pyridine-2-carboxamide]
% Potentiation @ 3.33 μM Avg: 393% | EC50: 140 nM

% Potentiation @ 3.33 μM Avg: 33%
SMILES: CC(C)(C)NC(=O)c1cc(NC(=O)Cc2ccccc2C#N)ccn1 [Example 23.14, N-tert-Butyl-4-[[2-(2-cyanophenyl)acetyl]amino]pyridine-2-carboxamide]

SMILES: CCC(C)NC(=O)c1cc(NC(=O)Cc2cc(Cl)ccc2O)ccn1 (centres unmarked) [Example 7.13, 4-[[2-(5-Chloro-2-hydroxy-phenyl)acetyl]amino]-N-sec-butyl-pyridine-2-carboxamide]
% Potentiation @ 3.33 μM Avg: 212% | EC50: 90 nM

SMILES: CC1(NC(=O)c2cc(NC(=O)Cc3cc(Cl)ccc3O)ccn2)CCCC1 [Example 38, 4-[[2-(5-Chloro-2-hydroxy-phenyl)acetyl]amino]-N-(1-methylcyclopentyl)pyridine-2-carboxamide]
% Potentiation @ 3.33 μM Avg: 307% | EC50: 50 nM

SMILES: CC1(NC(=O)c2cccc(NC(=O)Cc3cc(F)ccc3O)c2)CCCCC1 [Example 35.20, 3-[[2-(5-Fluoro-2-hydroxy-phenyl)acetyl]amino]-N-(1-methylcyclohexyl)benzamide]
% Potentiation @ 3.33 μM Avg: 240% | EC50: 420 nM

SMILES: Cc1ccccc1CC(=O)Nc1ccnc(C(=O)NC(C)(C)C)c1 [Example 5.7, N-tert-Butyl-4-[[2-(o-tolyl)acetyl]amino]pyridine-2-carboxamide]
% Potentiation @ 3.33 μM Avg: 131% | EC50: 1230 nM

SMILES: CC(C)(C)NC(=O)c1cccc(NC(=O)Cc2ccc(F)cc2O)c1 [Example 2.3, N-tert-Butyl-3-[[2-(4-fluoro-2-hydroxy-phenyl)acetyl]amino]benzamide]
% Potentiation @ 3.33 μM Avg: 203% | EC50: 590 nM

SMILES: COc1cccc(O)c1CC(=O)Nc1cccc(C(=O)NC(C)(C)C)c1 [Example 2.6, N-tert-Butyl-3-[[2-(2-hydroxy-6-methoxy-phenyl)acetyl]amino] benzamide]
% Potentiation @ 3.33 μM Avg: 140% | EC50: 2910 nM

SMILES: CC(C)(C)NC(=O)c1cccc(NC(=O)Cc2cc(F)ccc2O)c1 [Example 2.1, N-tert-Butyl-3-[[2-(5-fluoro-2-hydroxy-phenyl)acetyl]amino]benzamide]
% Potentiation @ 3.33 μM Avg: 216% | EC50: 490 nM

SMILES: CC(C)(C)NC(=O)c1cc(NC(=O)Cc2cc(Cl)ccc2O)c(F)cn1 [Example 28, N-tert-butyl-4-[[2-(5-chloro-2-hydroxy-phenyl)acetyl]amino]-5-fluoro-pyridine-2-carboxamide]
% Potentiation @ 3.33 μM Avg: 318% | EC50: 400 nM

% Potentiation @ 3.33 μM Avg: 144%
SMILES: O=C(Cc1cc(Cl)ccc1O)Nc1ccnc(C(=O)N[C@H]2CC[C@@H](O)C2)c1 [Example 35.3, 4-[[2-(5-Chloro-2-hydroxy-phenyl)acetyl]amino]-N-[(1s,3r)-3-hydroxycyclopentyl]pyridine-2-carboxamide]

SMILES: CC(C)(C)c1ccc(CC(=O)Nc2ccnc(C(=O)N[C@H]3CCCC[C@@H]3O)c2)cc1O [Example 93.1, 4-[2-(4-tert-butyl-3-hydroxyphenyl)acetamido]-N-[(1S,2S)-2-hydroxycyclohexyl]pyridine-2-carboxamide]
% Potentiation @ 3.33 μM Avg: 207% | EC50: 50 nM

SMILES: CC(C)(C)NC(=O)c1cccc(NC(=O)Cc2n[nH]c3ccccc23)c1 [Example 4.1, N-tert-Butyl-3-[[2-(1H-indazol-3-yl)acetyl]amino]benzamide]
% Potentiation @ 3.33 μM Avg: 79% | EC50: 2170 nM

SMILES: O=C(Cc1cc(Cl)ccc1O)Nc1ccnc(C(=O)NC23CC4CC(CC(C4)C2)C3)c1 [Example 1.3, N-(1-Adamantyl)-4-[[2-(5-chloro-2-hydroxy-phenyl)acetyl]amino]pyridine-2-carboxamide]
% Potentiation @ 3.33 μM Avg: 233% | EC50: 240 nM

SMILES: COc1ccc(CNC(=O)c2cc(NC(=O)Cc3cc(Cl)ccc3O)ccn2)nc1 [Example 35.12, 4-[[2-(5-Chloro-2-hydroxy-phenyl)acetyl]amino]-N-[(5-methoxy-2-pyridyl)methyl]pyridine-2-carboxamide]
% Potentiation @ 3.33 μM Avg: 158% | EC50: 420 nM

% Potentiation @ 3.33 μM Avg: 70%
SMILES: Cn1nc(C(C)(C)C)cc1C(=O)Nc1ccnc(C(=O)NC(C)(C)C#N)c1 [Example 83.14, 4-[(5-tert-Butyl-2-methyl-pyrazole-3-carbonyl)amino]-N-(1-cyano-1-methyl-ethyl)pyridine-2-carboxamide]

% Potentiation @ 3.33 μM Avg: 55%
SMILES: Cc1nn(-c2ccccc2)cc1C(=O)Nc1ccnc(C(=O)NC(C)(C)C#N)c1 [Example 83.24, N-(1-Cyano-1-methyl-ethyl)-4-[(3-methyl-1-phenyl-pyrazole-4-carbonyl)amino]pyridine-2-carboxamide]

SMILES: C#CC1(NC(=O)c2cc(NC(=O)Cc3cc(Cl)ccc3O)ccn2)CCCCC1 [Example 35.24, 4-[[2-(5-Chloro-2-hydroxy-phenyl)acetyl]amino]-N-(1-ethynylcyclohexyl)pyridine-2-carboxamide]
% Potentiation @ 3.33 μM Avg: 120% | EC50: 10 nM

% Potentiation @ 3.33 μM Avg: 47%
SMILES: O=C(Cc1ccccc1Cl)Nc1ccnc(C(=O)NC2CCOCC2)c1 [Example 23.9, 4-[[2-(2-Chlorophenyl)acetyl]amino]-N-tetrahydropyran-4-yl-pyridine-2-carboxamide]

SMILES: CC(C)(C)NC(=O)c1cc(NC(=O)Cc2cccc(F)c2)ccn1 [Example 5.9, N-tert-Butyl-4-[[2-(3-fluorophenyl)acetyl]amino]pyridine-2-carboxamide]
% Potentiation @ 3.33 μM Avg: 126% | EC50: 1130 nM

SMILES: CC(C)(C)NC(=O)c1cc(NC(=O)Cc2cccs2)ccn1 [Example 5, N-tert-Butyl-4-[[2-[2-thienyl]acetyl]amino]pyridine-2-carboxamide]
% Potentiation @ 3.33 μM Avg: 78% | EC50: 800 nM

SMILES: C#CC(C)(C)NC(=O)c1cc(NC(=O)Cc2ccc(C(C)(C)C)c(O)c2)ccn1 [Example 93.5, 4-[[2-(4-tert-Butyl-3-hydroxy-phenyl)acetyl]amino]-N-(1,1-dimethylprop-2-ynyl)pyridine-2-carboxamide]
% Potentiation @ 3.33 μM Avg: 136% | EC50: 20 nM

% Potentiation @ 3.33 μM Avg: 58%
SMILES: CC(C)(C)NC(=O)c1ccc(O)c(NC(=O)Cc2cc(Cl)ccc2O)c1 [Example 14, N-tert-Butyl-3-[[2-(5-chloro-2-hydroxy-phenyl)acetyl]amino]-4-hydroxy-benzamide]

SMILES: CCCC(C)(C)NC(=O)c1cccc(NC(=O)Cc2cc(Cl)ccc2O)c1 [Example 7.1, 3-[[2-(5-Chloro-2-hydroxy-phenyl)acetyl]amino]-N-(1,1-dimethylbutyl)benzamide]
% Potentiation @ 3.33 μM Avg: 241% | EC50: 340 nM

SMILES: CC(C)(C)NC(=O)c1cc(NC(=O)Cc2cc(Cl)ccc2O)ccc1F [Example 17, N-tert-Butyl-5-[[2-(5-chloro-2-hydroxy-phenyl)acetyl]amino]-2-fluoro-benzamide]
% Potentiation @ 3.33 μM Avg: 173% | EC50: 1490 nM

SMILES: CCC(C)(C)NC(=O)c1cc(NC(=O)Cc2cc(Cl)ccc2O)ccn1 [Example 9.2, 4-[[2-(5-Chloro-2-hydroxy-phenyl)acetyl]amino]-N-(1,1-dimethylpropyl)pyridine-2-carboxamide]
% Potentiation @ 3.33 μM Avg: 196% | EC50: 190 nM

% Potentiation @ 3.33 μM Avg: 39%
SMILES: CC(C)(C)NC(=O)c1cc(NC(=O)Cc2cccc(CC#N)c2)ccn1 [Example 68, N-tert-Butyl-4-[[2-[3-(cyanomethyl)phenyl]acetyl]amino]pyridine-2-carboxamide]
